{"source": "patent US7604955B2", "about": "“Immunoglobulin E vaccines and methods of use thereof” (priority 2001, dated 2009)", "key": {"[1]": {"system": "P815 murine mastocytoma cells", "test": "Chromium release assay: CTL from peptide-immunized BALB/c mice against peptide-contacted P815 cells", "type": "cell-based, mouse", "conditions": "for CTL response cytotoxic to target cells displaying the peptide (specific lysis): BALB/c mice immunized with 30 micrograms peptide + OVAp in DOTAP liposomes, targets contacted with same peptide and interferon-gamma", "procedure": "The test peptides p 1 and p2 were evaluated for the ability to elicit in mice a cytotoxic T-lymphocyte response to naturally presented immunoglobulin E peptides. Eight-week old BALB/c mice in groups of four were each immunized with 30 micrograms of one of the test peptides p1 or p2, together with 30 micrograms of the co-stimulatory factor OVAp (ovalbumin peptide) (Schimokevitz, 1984, J. Immunol., 133:2067), an oligopeptide consisting of the sequence […](SEQ ID NO. 3), in N-[1-(-2,3-dioleoyloxy)propyl]-N,N,N-trimethylammonium methylsulfate (DOTAP, purchased from Boehringer Mannheim, Indianapolis, Ind.) cationic liposomes. Two weeks after the first immunization, mice in each respective group were immunized a second time with the appropriate test peptide (p1 or p2) that had been used in the initial immunization. Two weeks after the second immunization, 5×10^6 spleen cells were removed from a pool of two to four mice, established in vitro, and re-stimulated with the respective test peptide in vitro for seven days. The cytotoxic T-lymphocytes thus obtained were tested using a standard chromium release assay (Colligan et al. 2002, Current Protocols in Immunology, 3.11) for their ability as effector cells to lyse target cells. The target cells consisted of P815 murine mastocytoma cells that had been contacted with the appropriate test peptide (p1 or p2) and treated overnight with 50 units per milliliter interferon-gamma to facilitate processing of the test peptide. Effector cells (E) and target cells (T) were mixed at different E/T ratios for 4 hours. The specific lysis was determined by the following formula: [(experimental release−spontaneous release)/(maximal release−spontaneous release)]×100.\nThe test peptide p3 was similarly evaluated for the ability to elicit a cytotoxic T-lymphocyte response in mice to naturally processed and presented immunoglobulin E peptides. […] The specific lysis was determined by the following formula: [(experimental release−spontaneous release)/(maximal release−spontaneous release)]×100."}, "[2]": {"system": "HLA-A2.1", "test": "HLA-A2.1 cell surface expression in RMA-S-A2.1 cells (FACS)", "type": "cell-based, human", "conditions": "for Increase of HLA-A2.1-specific fluorescence intensity: RMA-S-A2.1 cells, 50 micromoles per liter peptide, 37 C overnight, FITC anti-HLA-A2.1", "procedure": "Cells were pooled from the duplicate cultures and about 1×10^6 cells were incubated with 2 micrograms per milliliter fluorescein isothiocyanate-labelled anti-HLA-A2.1 antibody (catalogue number 32294x, PharMingen) at 4° C. for 30 min. Fluorescence-activated cell sorting (FACS) analysis was performed on a FACScan (Becton-Dickinson). About ten thousand events were collected and analyzed by CELLQuest software (version 1.2.2, BD Biosciences)."}, "[3]": {"system": "LPS and IL-4 stimulated B-lymphocyte cultures", "test": "Polyclonal IgE production by LPS and IL-4 stimulated B-lymphocyte cultures with CTL (ELISA)", "type": "cell-based, mouse", "conditions": "CTL from mice immunized with only OVAp in DOTAP liposomes", "procedure": "In a second experiment, BALB/c splenic B-lymphocytes were enriched by magnetic beads coated with an antibody against the B-lymphocyte-specific cell surface antigen B220. To assess CTL effects on polyclonal IgE production, 3×10^5 normal B-lymphocytes were added to either 3×10^6 p3-activated spleen cells from mice immunized with test peptide p3 together with the co-stimulatory factor OVAp in DOTAP liposomes, or to 3×10^6 p3-activated spleen cells from mice immunized with only the co-stimulatory factor OVAp in DOTAP liposomes as a control. The co-cultures were then stimulated with 20 micrograms per milliliter lipopolysaccharide (LPS) and 250 units per milliliter murine recombinant interleukin-4 (IL-4). Two days later, the culture supernatants were harvested. Immunoglobulin E levels were determined using a commercial double-sandwich ELISA assay (catalogue number 2655KI, PharMingen)."}, "[4]": {"system": "KLH-specific IgE", "test": "Allergen-specific (KLH-specific) IgE in vivo by passive cutaneous anaphylaxis (PCA)", "design": "species or system mouse", "conditions": "BALB/c mice immunized with only OVAp in liposomes, KLH/alum challenge; pooled blood", "procedure": "In a third experiment, the effect of immunoglobulin E peptide immunization on production of allergen-specific IgE in vivo was determined. Adult BALB/c mice (5/group) were immunized twice with either the test peptide p3 or the test peptide p1, together with the co-stimulatory factor OVAp in DOTAP liposomes, or with only the co-stimulatory factor OVAp in DOTAP liposomes. Mice immunized with saline served as control. Seven days after the second immunization, mice were challenged with 1 microgram keyhole limpet hemocyanin (KLH) in 2 milligrams alum intraperitoneally four times at a 10 day interval, and the allergen-specific (KLH-specific) IgE in pooled blood was then determined by passive cutaneous anaphylaxis (PCA) reaction. […] Reduction of allergen-specific PCA correlated directly with the elicitation of IgE peptide-specific cytotoxic T-lymphocytes in vitro (as depicted in FIG. 3B)."}, "[5]": {"system": "murine EL-4 lymphoma cells", "test": "Chromium release assay: CTL from immunized C57BL/6 mice against p4-contacted EL-4 cells", "type": "cell-based, mouse", "conditions": "C57BL/6 mice immunized with p4 with OVAp; p4-contacted EL-4 targets", "text": "Groups consisting each of five C57BL/6 mice were immunized with either 30 micrograms of the test peptide p4 with 30 micrograms of the co-stimulatory factor OVAp, or with 30 micrograms of the test peptide p5 delivered in 30 micrograms DOTAP liposomes. Two weeks after the first immunization, mice in each respective group were immunized a second time with the appropriate test peptide formulation (p4 plus OVAp, or p5 in DOTAP liposomes) that had been used in the initial immunization. Two weeks after the second immunization, 5×10^6 spleen cells were removed from a pool of two to four mice, established in vitro, and re-stimulated with the appropriate test peptide (p4 or p5) in vitro for seven days. The cytotoxic T-lymphocytes thus obtained were tested using a standard chromium release assay for their ability as effector cells to lyse target cells. The target cells consisted of murine EL-4 lymphoma cells, which display the major histocompatibility complex class I molecules H-2K^b and H-2D^b, and that had been contacted with the test peptide p4 and treated overnight with 50 units per milliliter interferon-gamma. Effector cells (E) and target cells (T) were mixed at different E/T ratios for 4 hours. The specific lysis was determined by the following formula: [(experimental release−spontaneous release)/(maximal release−spontaneous release)]×100."}}, "note": "Square brackets hold non-standard residues; d marks the D form. Ends that are not written are not given here. Vat = not defined here"}
{"substance": "LYCFIYGHI [p1]", "values": [{"measurement": "CTL response cytotoxic to target cells displaying the peptide (specific lysis)", "setting": "[1]", "result": "able to elicit a CTL response"}]}
{"substance": "WLSDRTYTC [539.11]", "values": [{"measurement": "Increase of HLA-A2.1-specific fluorescence intensity", "setting": "[2]", "result": "one log"}]}
{"substance": "ISQAVHAAHAEINEAGR [OVAp, co-stimulatory factor]", "values": [{"measurement": "immunoglobulin E production in vitro", "setting": "[3]", "result": "did not decrease immunoglobulin E production"}, {"measurement": "KLH-specific IgE PCA titre", "setting": "[4]", "result": 160}, {"measurement": "CTL response against p3-treated P815 target cells", "setting": "[1]; BALB/c mice immunized with OVAp in liposomes only", "result": "did not induce a substantial CTL-response"}]}
{"substance": "LLTVSGAWA [539.8]", "values": [{"measurement": "effect of exogenous human beta-2 microglobulin on surface expression of HLA-A2.1", "setting": "[2]; RMA-S-A2.1 cells incubated with peptide in presence versus absence of human beta-2 microglobulin", "result": "did not substantially enhance surface expression of HLA-A2.1"}, {"measurement": "Increase of HLA-A2.1-specific fluorescence intensity", "setting": "[2]", "result": "one log"}]}
{"substance": "Trp Val Asp Asn Lys Thr Phe Ser Vat (WVDNKTFS[Vat]; reading uncertain; also: printed as Trp Val Asp Asn Lys Thr Phe Ser Vat) [539.12]", "values": [{"measurement": "Increase of HLA-A2.1-specific fluorescence intensity", "setting": "[2]", "result": "one log"}]}
{"substance": "TQSPSVFPL [539.10]", "values": [{"measurement": "Increase of HLA-A2.1-specific fluorescence intensity", "setting": "[2]", "result": "one log"}]}
{"substance": "QLPDARHST [539.9]", "values": [{"measurement": "Increase of HLA-A2.1-specific fluorescence intensity", "setting": "[2]", "result": "one log"}]}
{"substance": "IYGHILNDV [p2, lie Tyr Gly His li0e Leu Asn Asp Val]", "values": [{"measurement": "CTL response cytotoxic to target cells displaying the peptide (specific lysis)", "setting": "[1]", "result": "able to elicit a CTL response"}]}
{"substance": "Ile Gln Leu Tyr Cys Phe Ile Try Gly His Ile Leu Asn Asp Val Ser Val (IQLYCFIYGHILNDVSV; Mouse (Mus musculus)) [p4]", "values": [{"measurement": "immunoglobulin E-specific CTL response", "setting": "[5]", "result": "comparable levels of immunoglobulin E-specific CTL response"}]}
